The source of these data is US20190111040A1, “IN VIVO AMELIORATION OF ENDOGENOUS ANTI-TUMOR AUTOANTIBODIES TARGETING SURFACE TUMOR ANTIGENS VIA LOW-DOSE P4N” (THE JOHNS HOPKINS UNIVERSITY, priority 2016, published 2019).

Counter-ions that a name gives are not always drawn.

In one test the test system is Human B or T cells. Nature of the test: Proliferation of isolated human B or T cells, MTT assay. The test is classed as cell-based. The procedure: FIG. 10 depicts the effects of P4N on cell proliferation. Human B or T cells were isolated from the PBMCs by negative selection using a magnetic sorting device (Miltenyi Biotec, Auburn, Calif.). Cell proliferation was determined by an MTT assay.
Total B-cells were isolated from human PBMCs or mouse splenocytes by negative selection using a magnetic sorting device (Miltenyi Biotec, Auburn, Calif.). Briefly, PBMCs were incubated with a cocktail of biotin-conjugated antibodies, followed by microbead-conjugated anti-biotin Abs for magnetic depletion. B-cells were eluted according to the manufacturer's protocols. Human blood samples were collected from healthy individuals following an IRB-approved protocol and in agreement with the Committee for Research Ethics Board of Chung Shan Medical University Hospital.
In general terms: Tetrazolium dyes change colour on reduction, which living cells bring about.

The next test relates to CT-26 cells. Nature of the test: Binding of anti-sera to CT-26 tumor tissue and cell surface antigens. Also noted: species or system mouse. Particulars: flow cytometry, FIG. 15. The procedure:
FIG. 15 is a graph showing the affinities of anti-sera against CT-26 cells after different lengths of incubation. Tumor antigens on the surface of CT26 cells were indirectly probed with P4N and PBS anti-sera and FITC-conjugated goat anti-mouse IgG antibody. The specific fluorescent activities were measured by flow cytometry.
Sections of CT-26 tumors from untreated mice were incubated with a 200-fold dilution of normal sera, PBS anti-sera or P4N anti-sera at 4° C. overnight. Sequentially, the sections were recognized using an HRP-conjugated anti-mouse IgG antibody (1:1500 dilution; Santa Cruz Biotechnology), and then developed, counterstained and photographed as described above.
Immunofluorescence analysis of cell surface tumor antigens. CT-26 cells were seeded on glass cover slides, and fixed with 4% (w/w) paraformaldehyde The fixed cells were then incubated with normal sera, PBS anti-sera or P4N anti-sera for 1 h and detected with secondary antibodies conjugated to Alexa Fluor 568 (Molecular Probes, Eugene, USA). Alexa Fluor 488-conjugated Concanavalin A (ConA; Molecular Probes) and DAPI (Molecular Probes) were used to label the plasma membrane and nucleus. The images of tumor antigens recognized by the anti-sera were photographed at a 400× magnification using a Zeiss LSM 510 META confocal microscope (Carl Zeiss, Jena, Germany).
Background: A flow cytometer gives signals particle by particle.

For another test, the system named is human PBMCs. Nature of the test: PBMC proliferation assay. The class given is cell-based. To be noted: 48 h. As for the experimental part:
PBMC proliferation assay. Two hundred microliters of PBMCs (5×10^4 cells/ml) were seeded in each well of a 96-well culture plate and treated with increasing concentrations of P4N (0.38, 0.75, 1.5, 3 or 6 μM) for 48 h. The number of viable cells was evaluated by MTT assay and a cell proliferation index was calculated as follows: Proliferation index=(OD595 of sample)/(OD595 of the untreated cells)×100%. PBMCs were also treated with or without P4N (0.75, 1.5 or 3 μM) for 48 h, and probed with anti-CD20 antibodies (Roche, Mannheim, Germany) and FITC-conjugated goat anti-human IgG polyclonal antibodies (SouthernBiotech, Birmingham, Ala.). The percentage of B cells in treated PBMCs was determined by flow cytometry (BD Biosciences, Mountain View, Calif.), and the indices of B cell proliferation were calculated as follows: (the number of PBMCs×the percentage of B cells in treated PBMCs)/(the number of PBMCs×the percentage of B cells in untreated PBMCs).

Test [1] deals with THP-1 cells. Nature of the test: Activin A and BAFF mRNA and protein in THP-1 cells, RT-PCR and ELISA. The test is classed as cell-based. As for the experimental part: FIGS. 5A-5F depict the expression of Activin A/BAFF induced by P4N treatments. (A) P4N induced Activin A or BAFF expression in human PBMCs as determined by RT-PCR. S1-S5 display different individual blood samples collected from 5 different human donors; N, no treatment; P, P4N-treatment (3 μM). The change in Activin A and BAFF expression (mean of 5 patients) relative to the control (NC) is plotted as a histogram (B) The effect of increasing dosages of P4N for 12 h on mRNA and protein levels of Activin A or BAFF in THP-1 cells was analyzed by RT-PCR and ELISA. (C) The effect of 6 μM P4N on mRNA and protein levels of Activin A or BAFF in THP-1 cells was determined at a different time period. (D) The effect of different inhibitors on Activin A-induced BAFF expression was examined. The expression of BAFF mRNA in inhibitor-treated THP-1 cells was determined by RT-PCR, and (E) BAFF protein secretion was measured by ELISA. (F) The effect of THP-1 conditioned media on the proliferation of Raji cells and OKT3 hybridoma cells were determined. Media were harvested, in which THP-1 cells were pre-treated without inhibitor (2) or with SB431542 (3), A83-01 (4), SIS3 (5), SB203580 (6) or PD98059 (7) and then treated with P4N for 12 h. The results are expressed as % viable cells relative to the control (NC, media from untreated THP-1 cells). All values are the means of triplicate samples±SEM. The significant differences in the results of inhibitor and P4N-treated groups compared with the untreated group are indicated by ***P<0.001.
Reverse transcription PCR. Human PBMCs or THP-1 cells were treated with P4N, and then the mRNA expression of INHBA and BAFF in these cells was measured by reverse transcription PCR. Briefly, total cellular RNA was extracted with Trizol reagent (Invitrogen) and reverse-transcribed into cDNA using the Superscript RT-kit (Invitrogen). The cDNA of INHBA and BAFF were then amplified by PCR. GAPDH cDNA in the samples was used to normalize the loading amounts in each reaction. […]
Background: In an ELISA, binding on a coated surface is turned into a signal by an enzyme label.

The test system of test [2] is THP-1 cells. Nature of the test: Gene expression profiling of P4N treated THP-1 cells, cDNA microarray. The class given is cell-based. To be noted: THP-1 cells following P4N treatment. As for the experimental part:
Gene expression profiling and analysis. Amplification and labeling of RNA was performed with the Illumina®TotalPrep RNA Amplification Kit from Life Technologies (Ambion, Applied Biosystems, Foster City, Calif.) using 150 ng of RNA per sample. Labeled RNA (750 ng) was hybridized to Illumina HT-12 v4 Expression BeadChips (˜48,000 probes) and processed according to the manufacturer's protocol. Expression data underwent quality control and normalization by GenomeStudio (Illumina, San Diego, Calif.). Genes differentially expressed in the cells treated with P4N relative to the untreated cells were identified, with special emphasis given to genes involved in cytokine-cytokine receptor interaction (KEGG pathway). […] The identified genes were subjected to the Database for Annotation, Visualization and Integrated Discovery (DAVID) (david.abcc.ncifcrf.gov/) for Gene Ontology (GO) and KEGG pathway enrichment analysis. A P-value <0.05 was set as threshold of enrichment analysis.

Consider `C[C@H](Cc1ccc(OCCN2CCCCC2)c(OCCN2CCCCC2)c1)[C@@H](C)Cc1ccc(OCCN2CCCCC2)c(OCCN2CCCCC2)c1` [P4N, meso-2,3-dimethyl-1,4-bis(3,4-[2-(piperidino)ethoxyphenyl])butane tetrakishydrochloride salt], for which, in the test on Human B or T cells, the “proliferation of T-cell-depleted PBMCs” value is “increased the proliferation” and the “proliferation of isolated T cells or B cells” value was “did not induce the proliferation”. Moreover, the “binding affinities of EAA” value with CT-26 cells is given as “enhanced their binding affinities”. Also, the “increase of PBMC proliferation” value with human PBMCs (depending on the dose of P4N (0.38-6 μM), MTT) is given as 10-35%. Further, the “proliferation of the B cell population in human PBMCs” value with human PBMCs (flow cytometry) is reported as “significantly increased”. In the test on THP-1 cells [1] (THP-1, 6 μM P4N), the “time of elevated BAFF expression” value came to 8 h and the “time of up-regulated mRNA expression of Activin A” value is recorded as 2 h. The “dose dependence of Activin A and BAFF mRNA and protein levels” value with THP-1 cells [1] (THP-1, increasing dosages of P4N, 12 h) is reported as “dose-dependent manner”. Also, in the test with THP-1 cells [2], the “up-regulated genes of cytokine-cytokine interaction (KEGG pathway)” value turned out to be 26 and the “up-regulated genes of growth factor activity (GO: 0008083)” value stood at 10.
